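Growth conditions: 96-well plates. Treatment: test compound, 48 hours, 5 concentrations. Analysis: linear interpolation between bracketing concentrations; unreached endpoints set to highest concentration. GI50 marks 50% less growth. TGI: concentration producing complete growth inhibition.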
Columns and labels:
Assay in all cases: NCI-60 cell line screen, 48 h
SF-295 CNS = system: SF-295 CNS
HOP-92 NSCLC = system: HOP-92 NSCLC
CAKI-1 renal = system: CAKI-1 renal
EKVX NSCLC = system: EKVX NSCLC
A549 NSCLC = system: A549 NSCLC
RPMI-8226 leukemia = system: RPMI-8226 leukemia
NCI-H23 lung = system: NCI-H23 lung
NCI-H460 lung = system: NCI-H460 lung
UO-31 renal = system: UO-31 renal
OVCAR-5 ovarian = system: OVCAR-5 ovarian

SMILES	GI50 (SF-295 CNS) [µM]	TGI (SF-295 CNS) [µM]	GI50 (HOP-92 NSCLC) [µM]	TGI (HOP-92 NSCLC) [µM]	GI50 (CAKI-1 renal) [µM]	TGI (CAKI-1 renal) [µM]	GI50 (EKVX NSCLC) [µM]	TGI (EKVX NSCLC) [µM]	GI50 (A549 NSCLC) [µM]	TGI (A549 NSCLC) [µM]	GI50 (RPMI-8226 leukemia) [µM]	TGI (RPMI-8226 leukemia) [µM]	GI50 (NCI-H23 lung) [µM]	TGI (NCI-H23 lung) [µM]	GI50 (NCI-H460 lung) [µM]	TGI (NCI-H460 lung) [µM]	GI50 (UO-31 renal) [µM]	TGI (UO-31 renal) [µM]	GI50 (OVCAR-5 ovarian) [µM]	TGI (OVCAR-5 ovarian) [µM]
COc1ccc2c(c1)C(=O)c1c-2n(CCCN=[N+]=[N-])c(=O)c2cc(N(C)C)ccc12	> 100	> 100	2.87	24.6	> 100	> 100	> 100	> 100	> 100	> 100	> 100	> 100	> 100	> 100	> 100	> 100	> 100	> 100	> 100	> 100
COc1ccc(-c2cc(=O)c3c(C)cc(C)nc3[nH]2)cc1	42.5	> 100		> 100		82.9		> 100		> 100		54.6		> 100	40.9	> 100		> 100		> 100
C=CCN(/C=C1/C(=O)O[C@H](COC)[C@@]2(C)C1=C(O)C(=O)C1=C2[C@H](OC(C)=O)C[C@]2(C)C(=O)CC[C@@H]12)CC=C	0.573	> 10	0.0783	1.57	0.357	> 10	0.828	> 10	0.382	> 8.15	2	> 10	> 5.65	> 10	0.585	> 10	0.148	> 10	1.08	> 10
Cc1c(S(C)(=O)=O)c(-c2cc(F)cc(N3CCN(c4ccc(NS(=O)(=O)c5ccc(N[C@H](CCN6CCC(C(=O)OCCCP(=O)(O)O)CC6)CSc6ccccc6)c(S(=O)(=O)C(F)(F)F)c5)cc4)CC3)c2)c(-c2ccc(Cl)cc2)n1C(C)C	> 100	> 100	0.0794	0.952	> 100	> 100	> 100	> 100	> 100	> 100	1.29	> 100	> 100	> 100	> 100	> 100	> 100	> 100	> 100	> 100
C1C[OH+]CC[OH+]CCNCC[OH+]CC[OH+]CCN1.[Cl-].[Pt+4]	> 100	> 100	> 100	> 100	> 100	> 100	> 100	> 100	> 100	> 100	> 100	> 100	> 100	> 100			> 100	> 100	> 100	> 100
CC(C)C1(O)C(c2ccccc2)=C(c2ccccc2)C(c2ccccc2)=C1c1ccccc1		30.2		50.2		> 100		47		54.6		5.26		91.3		46.8		23.7		> 100
CCCCC1CC(c2cccc([N+](=O)[O-])c2)=NO1 (stereo not given)		> 100		> 100		> 100		> 100		> 100		> 100		> 100		> 100		> 100		> 100

Reference: PubChem BioAssay (NCI)
